Test results taken from patent US20250081967A1, “PESTICIDALLY ACTIVE HETEROCYCLIC DERIVATIVES WITH SULFOXIMINE CONTAINING SUBSTITUENTS” (SYNGENTA CROP PROTECTION AG, priority 2021, published 2025).

Legend:
Type in all cases: in vivo
[1] = system: Plutella xylostella; assay: Activity against Plutella xylostella (diamond back moth), artificial diet, L2 larvae; details: 120 h, application rate 200 ppm, 5 days after infestation, read-out: effect in at least one of the two categories (mortality or growth inhibition)
Experimental: Example B2: Activity Against Plutella xylostella (Diamond Back Moth)
(§1) 24-well microtiter plates with artificial diet were treated with aqueous test solutions prepared from 10′000 ppm DMSO stock solutions by pipetting. After drying, the plates were infested with L2 larvae (10 to 15 per well). The samples were assessed for mortality and growth inhibition in comparison to untreated samples 5 days after infestation.

[2] = system: Diabrotica balteata; assay: Activity against Diabrotica balteata (corn root worm), maize sprouts; details: for percent effect (mortality or growth inhibition) at 200 ppm: 96 h, application rate 200 ppm, L2 larvae, 4 days after infestation, read-out: effect in at least one of the two categories (mortality or growth inhibition)
Experimental: Example B3: Activity Against Diabrotica Balteata (Corn Root Worm)
as §1, with “Maize sprouts placed onto an agar layer in 24-well” for “24-well”, “plates” for “plates with artificial diet”, “spraying.” for “pipetting.”, “(6” for “(10”, “10” for “15”, “4” for “5”

[3] = system: Bemisia tabaci; assay: Activity against Bemisia tabaci (cotton white fly), cotton leaf discs; details: foliar; for mortality at 200 ppm: 144 h, application rate 200 ppm, adult white flies, 6 days after incubation
Experimental: Example B6: Activity Against Bemisia tabaci (Cotton White Fly)
Cotton leaf discs were placed on agar in 24-well microtiter plates and sprayed with aqueous test solutions prepared from 10′000 ppm DMSO stock solutions. After drying the leaf discs were infested with adult white flies. The samples were checked for mortality 6 days after incubation.

[4] = system: Spodoptera littoralis; assay: Activity against Spodoptera littoralis (Egyptian cotton leaf worm), cotton leaf discs; details: foliar, 72 h, application rate 200 ppm, L1 larvae, 3 days after infestation, read-out: control (mortality, anti-feeding effect or growth inhibition)
Experimental: Example B1: Activity Against Spodoptera littoralis (Egyptian Cotton Leaf Worm)
Cotton leaf discs were placed onto agar in 24-well microtiter plates and sprayed with aqueous test solutions prepared from 10′000 ppm DMSO stock solutions. After drying the leaf discs were infested with five L1 larvae. The samples were assessed for mortality, anti-feeding effect, and growth inhibition in comparison to untreated samples 3 days after infestation. Control of Spodoptera littoralis by a test sample is given when at least one of the categories mortality, anti-feedant effect, and growth inhibition is higher than the untreated sample.

[5] = system: Myzus persicae; assay: Activity against Myzus persicae (green peach aphid), systemic activity, pea seedlings; details: for mortality at 24 ppm: Myzus persicae, 144 h, test rate 24 ppm, systemic, 6 days after placing seedlings in test solutions
Experimental: Example B5: Activity Against Myzus persicae (Green Peach Aphid) Systemic Activity
Roots of pea seedlings infested with an aphid population of mixed ages were placed directly in the aqueous test solutions prepared from 10′000 DMSO stock solutions. The samples were assessed for mortality 6 days after placing seedlings in test solutions.

[6] = system: Myzus persicae; assay: Activity against Myzus persicae (green peach aphid), feeding/contact activity, sunflower leaf discs; details: Myzus persicae, foliar; for mortality at 200 ppm: 144 h, application rate 200 ppm, feeding/contact, 6 days after infestation
Experimental: Example B4: Activity Against Myzus persicae (Green Peach Aphid) Feeding/Contact Activity
Sunflower leaf discs were placed on agar in a 24-well microtiter plate and sprayed with aqueous test solutions prepared from 10′000 ppm DMSO stock solutions. After drying, the leaf discs were infested with an aphid population of mixed ages. The samples were assessed for mortality 6 days after infestation.

[7] = system: Euschistus heros; assay: Activity against Euschistus heros (neotropical brown stink bug), soybean leaf; details: 120 h, application rate 200 ppm, N-2 nymphs, 5 days after infestation, read-out: effect in at least one of the two categories (mortality or growth inhibition)
Experimental: Example B7: Activity Against Euschistus heros (Neotropical Brown Stink Bug)
Soybean leaf on agar in 24-well microtiter plates were sprayed with aqueous test solutions prepared from 10′000 ppm DMSO stock solutions. After drying the leaf were infested with N-2 nymphs. The samples were assessed for mortality and growth inhibition in comparison to untreated samples 5 days after infestation.

[8] = system: Plutella xylostella; assay: Activity against Plutella xylostella (diamond back moth), artificial diet, eggs; details: 192 h, application rate 200 ppm, 8 days after infestation, read-out: effect in at least one of the two categories (mortality or growth inhibition)
Experimental: Example B9: Activity Against Plutella xylostella (Diamond Back Moth)
as §1, with “drying, Plutella eggs were pipetted through a plastic stencil onto a gel blotting paper and” for “drying,”, “plate was closed” for “plates were infested”, “it.” for “L2 larvae (10 to 15 per well).”, “8” for “5”

Row | SMILES | percent effect (mortality or growth inhibition) at 200 ppm [1] [%] | percent effect (mortality or growth inhibition) at 200 ppm [2] [%] | mortality at 200 ppm [3] [%] | percent control (mortality, anti-feedant effect or growth inhibition) at 200 ppm [4] [%] | mortality at 24 ppm [5] [%] | mortality at 200 ppm [6] [%] | Mortality (%) ([2]; concentration 3.125 ppm) | Mortality (%) ([5]; Myzus persicae (systemic), concentration 24 ppm) | percent effect (mortality or growth inhibition) at 200 ppm [7] [%] | percent effect (mortality or growth inhibition) at 200 ppm [8] [%] | Mortality (%) ([2]; concentration 50 ppm) | mortality at 50 ppm ([3]; concentration 50 ppm) [%] | mortality at 50 ppm ([6]; Myzus persicae (contact), concentration 50 ppm) [%]
1 | CCS(=N)(=O)c1cc(OC(C)(C)C#N)cnc1-c1cn2cnc(C(F)(F)F)cc2n1 (racemic) [Compound P11, 2-[[5-(ethylsulfonimidoyl)-6-[7-(trifluoromethyl)imidazo[1,2-c]pyrimidin-2-yl]-3-pyridyl]oxy]-2-methyl-propanenitrile] | ≥ 80 | ≥ 80 | ≥ 80 | ≥ 80 | ≥ 80 | ≥ 80 |  |  |  |  |  |  | 
2 | CCS(=N)(=O)c1cc(OC(C)(C)C#N)cnc1-c1cn2ccc(C(F)(F)F)cc2n1 (racemic) [Compound P3, 2-[[5-(ethylsulfonimidoyl)-6-[7-(trifluoromethyl)imidazo[1,2-a]pyridin-2-yl]-3-pyridyl]oxy]-2-methyl-propanenitrile] | ≥ 80 | ≥ 80 |  | ≥ 80 |  | ≥ 80 |  |  |  |  |  |  | 
3 | CCS(=N)(=O)c1cc(OC(C)(C)C#N)c(C)nc1-c1nc2cc(C(F)(F)F)cnc2n1C (single isomer, unassigned) [Compound P5-B, 2-[[5-(ethylsulfonimidoyl)-2-methyl-6-[3-methyl-6-(trifluoromethyl)imidazo[4,5-b]pyridin-2-yl]-3-pyridyl]oxy]-2-methyl-propanenitrile] |  |  |  |  |  |  | 100 | 100 | ≥ 80 | ≥ 80 |  |  | 
4 | CCS(=N)(=O)c1cc(C2(C#N)CC2)cnc1-c1nc2cc(C(F)(F)F)n(OC)c(=O)c2n1C (single isomer, unassigned) [Compound P8-A, 1-[5-(ethylsulfonimidoyl)-6-[5-methoxy-3-methyl-4-oxo-6-(trifluoromethyl)imidazo[4,5-c]pyridin-2-yl]-3-pyridyl]cyclopropanecarbonitrile] |  | ≥ 80 | ≥ 80 | ≥ 80 | ≥ 80 | ≥ 80 |  |  | ≥ 80 |  |  |  | 
5 | CCn1c(C(F)(F)F)cc2nc(-c3ncc(C4(C#N)CC4)cc3S(=N)(=O)CC)n(C)c2c1=O (single isomer, unassigned) [Compound P14-A, 1-[6-[5-ethyl-3-methyl-4-oxo-6-(trifluoromethyl)imidazo[4,5-c]pyridin-2-yl]-5-(ethylsulfonimidoyl)-3-pyridyl]cyclopropanecarbonitrile] |  | ≥ 80 | ≥ 80 | ≥ 80 | ≥ 80 | ≥ 80 |  |  | ≥ 80 | ≥ 80 | 80 |  | 
6 | CCS(=N)(=O)c1cc(C2(C#N)CC2)cnc1-c1nc2cc(C(F)(F)F)cnc2n1C (racemic) [Compound P16, 1-[5-(ethylsulfonimidoyl)-6-[3-methyl-6-(trifluoromethyl)imidazo[4,5-b]pyridin-2-yl]-3-pyridyl]cyclopropanecarbonitrile] | ≥ 80 |  | ≥ 80 |  | ≥ 80 | ≥ 80 |  |  |  |  |  |  | 
7 | CCS(=N)(=O)c1cc(C(C)(C)C#N)cnc1-c1nc2cc(C(F)(F)F)cnc2n1C (racemic) [Compound P12, 2-[5-(ethylsulfonimidoyl)-6-[3-methyl-6-(trifluoromethyl)imidazo[4,5-b]pyridin-2-yl]-3-pyridyl]-2-methyl-propanenitrile] | ≥ 80 | ≥ 80 | ≥ 80 | ≥ 80 | ≥ 80 | ≥ 80 |  |  |  |  |  |  | 
8 | CCS(=N)(=O)c1cc(OC(C)(C)C#N)c(C)nc1-c1nc2cc(C(F)(F)F)ncc2n1C (racemic) [Compound P17, 2-[[5-(ethylsulfonimidoyl)-2-methyl-6-[3-methyl-6-(trifluoromethyl)imidazo[4,5-c]pyridin-2-yl]-3-pyridyl]oxy]-2-methyl-propanenitrile] | ≥ 80 |  | ≥ 80 | ≥ 80 | ≥ 80 | ≥ 80 |  |  |  |  |  |  | 
9 | CCS(=N)(=O)c1cc(OC(C)(C)C#N)c(C)nc1-c1nc2cc(C(F)(F)F)ncc2n1C (single isomer, unassigned) [Compound P17-B, 2-[[5-(ethylsulfonimidoyl)-2-methyl-6-[3-methyl-6-(trifluoromethyl)imidazo[4,5-c]pyridin-2-yl]-3-pyridyl]oxy]-2-methyl-propanenitrile] |  |  |  | ≥ 80 |  |  |  |  | ≥ 80 |  |  |  | 
10 | CCS(=N)(=O)c1cc(C2(C#N)CC2)ccc1-c1nc2cc(C(F)(F)F)cnc2n1C (racemic) [Compound P6, 1-[3-(ethylsulfonimidoyl)-4-[3-methyl-6-(trifluoromethyl)imidazo[4,5-b]pyridin-2-yl]phenyl]cyclopropanecarbonitrile] | ≥ 80 |  | ≥ 80 | ≥ 80 | ≥ 80 | ≥ 80 |  |  | ≥ 80 |  |  |  | 
11 | CCS(=N)(=O)c1cc(OC(C)(C)C#N)cnc1-c1nc2cc(C(F)(F)F)nnc2n1C (racemic) [Compound P15, 2-[[5-(ethylsulfonimidoyl)-6-[7-methyl-3-(trifluoromethyl)imidazo[4,5-c]pyridazin-6-yl]-3-pyridyl]oxy]-2-methyl-propanenitrile] | ≥ 80 | ≥ 80 | ≥ 80 |  | ≥ 80 | ≥ 80 |  |  | ≥ 80 |  |  |  | 
12 | CCS(=N)(=O)c1cc(OC(C)(C)C#N)cnc1-c1cn2cnc(SC(F)(F)F)cc2n1 (single isomer, unassigned) [Compound P7-A, 2-[[5-(ethylsulfonimidoyl)-6-[7-(trifluoromethylsulfanyl)imidazo[1,2-c]pyrimidin-2-yl]-3-pyridyl]oxy]-2-methyl-propanenitrile] |  | ≥ 80 | ≥ 80 | ≥ 80 | ≥ 80 | ≥ 80 |  |  | ≥ 80 |  |  | 80 | 
13 | CCS(=N)(=O)c1cc(OC(C)(C)C#N)cnc1-c1nc2cc(C(F)(F)F)n(C3CC3)c(=O)c2n1C (single isomer, unassigned) [Compound P1-A, 2-[[6-[5-cyclopropyl-3-methyl-4-oxo-6-(trifluoromethyl)imidazo[4,5-c]pyridin-2-yl]-5-(ethylsulfonimidoyl)-3-pyridyl]oxy]-2-methyl-propanenitrile] |  | ≥ 80 | ≥ 80 | ≥ 80 | ≥ 80 | ≥ 80 |  |  | ≥ 80 |  |  |  | 100
